Patent publication US12590099B2, “Inhibitors of histone deacetylase useful for the treatment or prevention of HIV infection” (Merck Sharp & Dohme LLC, priority 2018, dated 2026)

Key:
Type in all cases: biochemical
Recombinant human HDAC2 = biological target: T1, Recombinant human HDAC2 (Homo sapiens, UniProt Q92769); experiment: Human HDAC enzyme inhibitor Fluor-de-Lys assay, HDAC2
T1 construct: Full length human HDAC2-FLAG was expressed in baculovirus infected Sf9 cells; FLAG (C); made in house; host or cells: Sf9 (baculovirus)
Experimental: (§1) Human HDAC Enzyme Inhibitor Fluor-De-Lys Assay
(§2) Recombinant human HDAC8 (BML-SE145-0100) and HDAC10 (BML-SE559-0050) enzymes, HDAC substrates BML-KI104 and BML-KI178, and HDAC developer solutions BML-KI105 and BML-KI176 were purchased from Enzo Life Sciences. […] HDAC inhibitor suberoylanilide hydroxamic acid (SAHA) was obtained from Indofine and trichostatin A (TSA) was obtained from Sigma-Aldrich.
(§3) Recombinant human HDAC1, HDAC2, and HDAC3/SMRT heterodimer were prepared by Merck Research Laboratories. […] The eluted protein was then passed over an anti-HDAC1 immunoaffinity column to remove any complexes containing HDAC1. […]
(§4) The histone deacetylase activities of HDAC1, HDAC2, HDAC3, HDAC6, and HDAC8 were measured in modified FLUOR DE LYS assays in 384-well format. In this assay, HDAC enzymes are initially incubated with an ε-acetyl (or -trifluoroacetyl)-L-lysine-containing substrate with a C-terminal amide having aminomethylcoumarin as the amine component. HDACs cleave the ε-acetyl group, rendering the resulting product susceptible to AMC cleavage by trypsin. The released AMC is then detected by its fluorescence.
(§5) The HDAC3/SMRT assay employed buffer B, consisting of 20 mM HEPES, pH 8.0, 1 mM MgCl2, 50 mM NaCl, 2.7 mM KCl, 0.05% BSA, 0.005% Tween 20, and 10 μM IP4. […] The HDAC8 assay employed buffer D, consisting of 20 mM HEPES, pH 8.0, 1 mM MgCl2, 100 mM NaCl, 20 mM KCl, 0.10% n-octyl-β-D-glucoside (Anatrace) and 0.05% BSA. All steps were performed at room temperature (23° C.). The assay was performed by pre-incubating serial dilutions of test compounds with the target HDAC prior to initiation with substrate. Each compound was titrated in a 10-point dose response, using a 1:3 fold dilution scheme, with 0.15 ul of solution added by ECH0555 to the plate, followed by the addition of 20 μl of the appropriate HDAC isoform diluted in appropriate assay buffer. […] Final conditions used for each assay were: 1. HDAC 1, 0.3 nM total enzyme, 20 μM substrate BML-KI104; 2. […] HDAC 3/SMRT, 0.3 nM total enzyme, 20 μM substrate BML-KI104; 4. […] The reactions were stopped and developed by addition of 30 ul of HDAC developer solution containing a saturating level of HDAC inhibitor as follows: 1.

HDAC6 = biological target: T2, HDAC6 (Homo sapiens, UniProt Q9UBN7); experiment: Human HDAC enzyme inhibitor Fluor-de-Lys assay, HDAC6
T2 sequence (Q9UBN7 1-1215): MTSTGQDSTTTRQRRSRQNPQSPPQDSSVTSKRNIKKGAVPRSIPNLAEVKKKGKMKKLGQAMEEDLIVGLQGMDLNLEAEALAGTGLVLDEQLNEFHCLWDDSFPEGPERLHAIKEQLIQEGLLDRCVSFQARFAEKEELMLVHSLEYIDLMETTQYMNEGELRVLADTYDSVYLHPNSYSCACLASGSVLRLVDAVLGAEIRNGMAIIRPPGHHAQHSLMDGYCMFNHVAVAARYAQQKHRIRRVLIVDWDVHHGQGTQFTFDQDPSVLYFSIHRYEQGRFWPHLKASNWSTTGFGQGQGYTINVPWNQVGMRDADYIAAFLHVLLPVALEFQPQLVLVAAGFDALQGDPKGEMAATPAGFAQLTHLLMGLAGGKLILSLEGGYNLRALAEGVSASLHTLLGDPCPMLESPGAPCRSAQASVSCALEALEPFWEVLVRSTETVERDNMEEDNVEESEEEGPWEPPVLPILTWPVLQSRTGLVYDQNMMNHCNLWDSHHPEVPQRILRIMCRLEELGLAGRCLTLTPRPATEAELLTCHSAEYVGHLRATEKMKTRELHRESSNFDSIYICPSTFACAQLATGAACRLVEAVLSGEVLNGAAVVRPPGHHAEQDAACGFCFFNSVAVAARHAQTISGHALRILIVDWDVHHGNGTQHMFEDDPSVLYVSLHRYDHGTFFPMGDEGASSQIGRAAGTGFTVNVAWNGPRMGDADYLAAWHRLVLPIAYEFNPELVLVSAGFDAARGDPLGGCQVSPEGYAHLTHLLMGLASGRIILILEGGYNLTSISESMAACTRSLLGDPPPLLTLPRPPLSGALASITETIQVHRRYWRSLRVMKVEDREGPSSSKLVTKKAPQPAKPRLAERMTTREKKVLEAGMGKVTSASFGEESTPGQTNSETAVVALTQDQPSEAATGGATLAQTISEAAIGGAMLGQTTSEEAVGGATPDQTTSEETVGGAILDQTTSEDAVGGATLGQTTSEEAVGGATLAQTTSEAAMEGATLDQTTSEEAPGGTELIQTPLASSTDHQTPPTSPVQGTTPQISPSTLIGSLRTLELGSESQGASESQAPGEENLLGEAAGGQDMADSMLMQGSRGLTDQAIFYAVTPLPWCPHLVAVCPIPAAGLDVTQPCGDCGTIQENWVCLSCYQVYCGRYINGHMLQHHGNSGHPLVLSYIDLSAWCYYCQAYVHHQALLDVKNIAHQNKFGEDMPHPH

Recombinant human HDAC1 = biological target: T3, Recombinant human HDAC1 (Homo sapiens, UniProt Q13547); experiment: Human HDAC enzyme inhibitor Fluor-de-Lys assay, HDAC1
T3 construct: FLAG (C); made in house
Experimental: as §1, §2, §3, §4, §5

T3 sequence (Q13547 whole entry): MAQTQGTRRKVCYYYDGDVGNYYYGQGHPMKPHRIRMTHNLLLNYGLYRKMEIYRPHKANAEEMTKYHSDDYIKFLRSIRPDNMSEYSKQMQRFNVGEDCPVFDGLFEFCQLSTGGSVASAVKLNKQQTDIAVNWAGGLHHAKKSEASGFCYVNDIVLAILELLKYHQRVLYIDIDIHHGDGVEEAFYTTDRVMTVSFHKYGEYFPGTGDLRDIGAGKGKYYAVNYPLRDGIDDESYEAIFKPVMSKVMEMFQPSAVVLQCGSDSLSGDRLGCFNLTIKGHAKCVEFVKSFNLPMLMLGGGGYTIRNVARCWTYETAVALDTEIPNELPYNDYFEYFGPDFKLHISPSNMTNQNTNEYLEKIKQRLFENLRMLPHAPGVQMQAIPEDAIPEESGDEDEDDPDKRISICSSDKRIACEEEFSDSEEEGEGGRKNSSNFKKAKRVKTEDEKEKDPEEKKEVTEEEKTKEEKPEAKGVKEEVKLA
T1 sequence (Q92769 whole entry): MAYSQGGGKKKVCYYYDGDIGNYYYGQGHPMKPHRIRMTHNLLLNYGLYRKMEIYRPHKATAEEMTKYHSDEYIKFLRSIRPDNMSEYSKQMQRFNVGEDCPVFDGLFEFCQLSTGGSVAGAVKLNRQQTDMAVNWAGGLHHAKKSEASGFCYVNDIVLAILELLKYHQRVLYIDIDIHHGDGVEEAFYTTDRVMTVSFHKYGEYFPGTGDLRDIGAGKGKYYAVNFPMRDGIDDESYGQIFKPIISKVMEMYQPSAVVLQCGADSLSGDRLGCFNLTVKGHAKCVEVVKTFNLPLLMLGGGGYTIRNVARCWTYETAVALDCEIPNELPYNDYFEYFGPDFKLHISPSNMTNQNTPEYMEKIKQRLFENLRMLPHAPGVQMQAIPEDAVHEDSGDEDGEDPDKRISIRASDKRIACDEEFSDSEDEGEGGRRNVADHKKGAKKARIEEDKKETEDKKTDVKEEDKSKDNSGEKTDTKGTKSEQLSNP

SMILES | IC50 (Recombinant human HDAC2) | IC50 (HDAC6) | IC50 (Recombinant human HDAC1)
CCC(=O)CCCCC[C@H](NC(=O)[C@H]1CC12CCN(CC1CC1)CC2)c1ncc(-c2ccc3nc(C4CC4)ccc3c2)o1 [Compound 115] | 2 nM | 4290 nM | < 1.5 nM
CCC(=O)CCCCC[C@H](NC(=O)[C@H]1CC12CCN(C(C)C)CC2)c1ncc(-c2ccc3nc(C4CC4)ccc3c2)o1 [Compound 116] | 15.7 nM | 4730 nM | 4.37 nM
CCC(=O)CCCCC[C@H](NC(=O)[C@H]1CC12CCN(C)CC2)c1ncc(-c2ccc3nc(C4CC4)ccc3c2)o1 [Compound 121] | 4.4 nM | 4810 nM | 1.39 nM
CCC(=O)CCCCC[C@H](NC(=O)[C@H]1CC[C@]2(CC1)OC(=O)c1ncccc12)c1ncc(-c2ccc3nc(C4CC4)ccc3c2)o1 [Compound 122] | 157 nM | > 45000 nM | 56.7 nM
CCC(=O)CCCCC[C@H](NC(=O)[C@H]1CC[C@]2(CC1)OC(=O)c1cccnc12)c1ncc(-c2ccc3nc(C4CC4)ccc3c2)o1 [Compound 123] | 94.6 nM | > 15000 nM | 34.8 nM
CCC(=O)CCCCC[C@H](NC(=O)[C@H]1CC12CCN(C)CC2)c1ncc(-c2cc3ccccc3nc2OC)o1 [Compound 125] | 5.6 nM | 254 nM | < 1.5 nM
CCC(=O)CCCCC[C@H](NC(=O)[C@H]1CC12CCN(CC)CC2)c1ncc(-c2ccc3c(=O)n(C(C)C)ccc3c2)[nH]1 [Compound 126] | 1.3 nM | 18100 nM | 0.19 nM
CCC(=O)CCCCC[C@H](NC(=O)[C@H]1CC12CCN(CC)CC2)c1ncc(-c2ccc(-c3cnc(C4CC4)cn3)cc2)o1 [Compound 129, (1S)—N-[(1S)-1-{5-[4-(5-cyclopropylpyrazin-2-yl)phenyl]-1,3-oxazol-2-yl}-7-oxononyl]-6-ethyl-6-azaspiro[2.5]octane-1-carboxamide] | 89 nM | > 15000 nM | 27 nM
CC(O)C(=O)CCCCC[C@H](NC(=O)[C@H]1CC12CCN(C)CC2)c1nc(-c2ccc(F)cc2)c[nH]1 (stereo partly drawn) [Compound 134, (1S)—N-{(1S)-1-[4-(4-fluorophenyl)-1H-imidazol-2-yl]-8-hydroxy-7-oxononyl}-6-methyl-6-azaspiro[2.5]octane-1-carboxamide] | 51.6 nM | 1760 nM | 10.5 nM
CCC(=O)CCCCC[C@H](NC(=O)C1=NOC2(CCN(C)CC2)C1)c1ncc(-c2ccc3nc(C4CC4)ccc3c2)o1 [Compound 135] | 43.5 nM | > 15000 nM | 14.6 nM
CCC(=O)CCCCC[C@H](NC(=O)C1=NOC2(CCN(C(C)C)CC2)C1)c1ncc(-c2ccc3nc(C4CC4)ccc3c2)o1 [Compound 136] | 31.2 nM | > 4500 nM | 10.3 nM
CCC(=O)CCCCC[C@H](NC(=O)[C@H]1CC12CCN(C)CC2)c1ncc(-c2ccc3c(=O)n(C)ccc3c2)o1 [Compound 137] | 17.2 nM | 2760 nM | 7.78 nM
CCC(=O)CCCCC[C@H](NC(=O)[C@H]1CC12CCN(C)CC2)c1ncc(-c2ccc3oc(=O)ccc3c2)[nH]1 [Compound 138] | 7.9 nM | 1470 nM | 1.32 nM
CCC(=O)CCCCC[C@H](NC(=O)[C@H]1CC12CCN(C)CC2)c1ncc(-c2ccc(C3CC3)nc2)[nH]1 [Compound 139] | 26.1 nM | 4450 nM | 5.28 nM
